The test system of data set [1] is Marble Burying Activity in Mice. The conditions noted are these: literature (Spooren 2000; Nicolas 2006); cited from earlier work.
The nature of data set [2]: Cynomolgus monkey IV/PO pharmacokinetics. Particulars: in vivo; for Cmax / Tmax: Cynomolgus monkey PO.
The test system of data set [3] is Marble Burying Activity in Mice. In words: Inhibition of marble burying in mice (model of anxiolytic behavior). It counts as in vivo. The conditions noted are these: WT and Fmrl KO C57BL/6J mice. As for the experimental part:
It is well known that mice will bury foreign objects such as glass marbles in deep bedding (Deacon, R. M. J. Nature Protocols 2006, 1, 122-124). […] These facts along with the relative convenience of this assay make it a useful in vivo screening tool.
Doses of compound were suspended in vehicle (10% Tween 80 for intraperitoneal dosing and 0.5% methylcellulose for oral dosing), vortexed vigorously, heated gently with a Master Heat Gun (Master Appliance Corp., Racine, Wis.), and sonicated at 37° C. for 30 minutes. The pH was checked using 0-14 EMD strips and adjusted to approximately 7. All doses were administered at approximately 10 mL/kg.
Studies were conducted using male Harlan CD-1 mice (Harlan Sprague Dawley, Indianapolis, Ind.), weighing 30 to 35 grams. Subjects were housed in a large colony room under a 12 hour light/dark cycle (lights on at 6:00 a.m.) with food and water provided ad libitum. Test sessions were performed between 10:00 a.m. and 4:00 p.m. All dose groups consisted of ≧10 mice. All experiments were conducted in accordance with the National Institute of Health regulations of animal care covered in Principles of Laboratory Animal Care (National Institutes of Health publication 85-23, revised 1985) and were approved by the Institutional Animal Care and Use Committee.
Plexiglass cages (32×17×14 cm) were arranged on top of a large, round table. Mice were transported from the colony room to the testing room and allowed to habituate for 30 minutes. […] The novel compound and comparator were evaluated in a counterbalanced design, in which all doses of compounds were tested in each session. […] Clear, perforated plastic lids were set on top of each cage and the amount of marble burying was recorded over a 30 minute interval. The mice were then removed from the cages and the number of buried marbles was counted using the criteria of greater than ⅔ covered by bedding. […]
The data for the dose-response studies were analyzed by a between-group analysis of variance. […]

In a further data set the test system is elevated plus maze. In words: Elevated plus maze. In kind it is in vivo. How it is done:
Test compounds (1) and (2) were administrated at the 10 mg/kg and 30 mg/kg doses described in this figure. […] Prospective In Vivo Effects

Another data set deals with T1, mGluR5 (Rattus norvegicus, UniProt P31424).
T1 construct: expressed in transfected cells
T1 sequence (P31424 21-1171 isoform P31424-2 limits assumed): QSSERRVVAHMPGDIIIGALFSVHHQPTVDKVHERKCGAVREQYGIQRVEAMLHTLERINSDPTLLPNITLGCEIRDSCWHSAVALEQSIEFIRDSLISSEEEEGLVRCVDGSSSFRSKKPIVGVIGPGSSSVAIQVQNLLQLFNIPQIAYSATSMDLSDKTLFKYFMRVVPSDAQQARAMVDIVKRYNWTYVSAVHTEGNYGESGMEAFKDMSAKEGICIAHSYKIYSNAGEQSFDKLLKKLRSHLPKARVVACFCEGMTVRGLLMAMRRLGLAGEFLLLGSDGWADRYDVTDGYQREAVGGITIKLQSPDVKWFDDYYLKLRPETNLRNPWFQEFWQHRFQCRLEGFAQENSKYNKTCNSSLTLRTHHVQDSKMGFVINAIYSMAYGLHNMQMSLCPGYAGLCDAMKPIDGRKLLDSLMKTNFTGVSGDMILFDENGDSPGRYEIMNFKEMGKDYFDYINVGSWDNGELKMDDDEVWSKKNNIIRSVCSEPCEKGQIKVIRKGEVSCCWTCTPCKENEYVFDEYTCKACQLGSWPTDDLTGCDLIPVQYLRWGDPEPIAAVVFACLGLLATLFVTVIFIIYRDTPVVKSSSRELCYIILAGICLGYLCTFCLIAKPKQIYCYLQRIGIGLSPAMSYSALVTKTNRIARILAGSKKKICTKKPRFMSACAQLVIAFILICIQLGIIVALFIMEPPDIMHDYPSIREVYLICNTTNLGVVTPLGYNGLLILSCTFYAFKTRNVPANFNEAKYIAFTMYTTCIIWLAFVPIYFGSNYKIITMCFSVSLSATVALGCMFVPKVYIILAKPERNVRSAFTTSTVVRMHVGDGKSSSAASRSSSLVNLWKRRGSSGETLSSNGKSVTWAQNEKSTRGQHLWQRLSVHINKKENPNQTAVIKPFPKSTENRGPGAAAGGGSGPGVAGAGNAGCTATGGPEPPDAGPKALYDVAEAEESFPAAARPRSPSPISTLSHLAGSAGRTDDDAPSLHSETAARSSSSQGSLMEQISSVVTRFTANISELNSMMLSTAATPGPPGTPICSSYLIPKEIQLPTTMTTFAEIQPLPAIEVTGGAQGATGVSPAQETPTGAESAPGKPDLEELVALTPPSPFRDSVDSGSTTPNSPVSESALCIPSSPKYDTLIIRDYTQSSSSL
In words: mGluR5 IC50 / NAM profile of Tables 2 and 4. The conditions noted are these: Table 2, line under mGluR5 IC50. In kind it is cell-based. How it is done:
Human embryonic kidney (HEK) cells transfected with rat or human mGluR5 were plated in clear bottom assay plates for assay in a Functional Drug Screening System (FDSS). The cells were loaded with a Ca2+-sensitive fluorescent dye (e.g., Fluo-4), and the plates were washed and placed in the FDSS instrument. Test compound was applied to cells 3 seconds after baseline readings were taken. Cells were incubated with the test compounds for 140 seconds and then stimulated with an EC20 concentration of an mGluR5 agonist (e.g., glutamate, 3,5-dihydroxyphenylglycine, or quisqualate); 60-80 seconds later an EC80 concentration of agonist was added and readings taken for an additional 40 seconds. Data were collected at 1 Hz. […] Concentration response curves were generated using a four parameter logistical equation.

The nature of data set [4]: Solubility in SGF and FaSSIF. In kind it is physicochemical. An excerpt: (§1) Additional physicochemical and pharmacological data are provided below in Tables 2-4 for Test Compounds 1 and 2 (Compounds […] and (2) as described herein).
The next data set in a line: Permeability/efflux. In kind it is in vitro ADME. The conditions noted are these: Table 2, Permeability/efflux.
Text: as §1

The nature of a further data set: Human PPB. It counts as in vitro ADME.
Text: as §1

Data set [5] relates to N-methyl-D-aspartate (NMDA) receptor. Particulars: at higher concentrations; cited from earlier work.
The next data set addresses mGluR4 (Homo sapiens, UniProt Q14833). The conditions noted are these: cited from earlier work.
The nature of a further data set: Mouse BHB. In kind it is in vitro ADME.
Text: as §1

The nature of data set [6]: Mouse PO PK (plasma and brain concentration). In kind it is in vivo. Particulars: Mouse PO 10 mg/kg; for concentration at 0.25 h / concentration at 0.5 h / concentration at 3 h / concentration at 1 h: mouse, po, 10 mg/kg.
Text: as §1

Setting [7] is: SGF, pH 1.6, simulated gastric fluid.
[8] abbreviates: brain, read-out: Brain Concentration.
[9] abbreviates: brain, read-out: Free Brain Concentration.
[10] abbreviates: brain, 3 h, read-out: Brain Concentration.
The mark [11] stands for this setting: brain, 3 h, read-out: Free Brain Concentration.
The mark [12] stands for this setting: plasma, read-out: Plasma Concentration.

≈ marks a conversion by molar mass, not a printed value. Read-outs that look alike come from different tables or passages of the source.

Sequence of mGluR4 (Q14833 33-912): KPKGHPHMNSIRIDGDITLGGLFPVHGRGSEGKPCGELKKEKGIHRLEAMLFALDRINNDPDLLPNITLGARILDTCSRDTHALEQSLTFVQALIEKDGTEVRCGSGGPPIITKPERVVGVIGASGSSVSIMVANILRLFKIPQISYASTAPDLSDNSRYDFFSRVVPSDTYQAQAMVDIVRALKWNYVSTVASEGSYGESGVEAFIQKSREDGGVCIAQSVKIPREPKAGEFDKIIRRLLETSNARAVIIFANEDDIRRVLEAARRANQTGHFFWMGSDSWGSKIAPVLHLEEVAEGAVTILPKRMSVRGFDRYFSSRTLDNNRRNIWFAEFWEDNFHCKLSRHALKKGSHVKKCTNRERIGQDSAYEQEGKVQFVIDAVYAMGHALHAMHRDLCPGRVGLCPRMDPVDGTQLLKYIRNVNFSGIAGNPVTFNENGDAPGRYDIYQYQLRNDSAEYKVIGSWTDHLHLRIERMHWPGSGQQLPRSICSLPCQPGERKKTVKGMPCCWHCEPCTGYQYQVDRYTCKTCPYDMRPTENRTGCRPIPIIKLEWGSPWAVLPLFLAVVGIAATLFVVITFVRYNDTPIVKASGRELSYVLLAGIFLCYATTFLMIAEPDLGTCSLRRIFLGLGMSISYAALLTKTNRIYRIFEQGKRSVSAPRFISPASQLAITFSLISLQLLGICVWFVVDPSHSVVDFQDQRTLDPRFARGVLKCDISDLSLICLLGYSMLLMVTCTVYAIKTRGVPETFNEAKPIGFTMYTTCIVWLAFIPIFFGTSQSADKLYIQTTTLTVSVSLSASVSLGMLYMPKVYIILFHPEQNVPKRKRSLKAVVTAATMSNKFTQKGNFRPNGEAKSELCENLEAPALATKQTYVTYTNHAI

As for `CN1CC(=O)N=C1NC(=O)Nc1cccc(Cl)c1` [fenobam, 1-(3-chlorophenyl)-3-(1-methyl-4-oxo-4,5-dihydro-1H-imidazol-2-yl)urea], the “effect in marble burying model” value in data set [1] is listed as “effective in this model”.

The term bioavailability denotes dose-corrected exposure relative to a reference, in per cent. Usually half-life stands for the time in which the quantity being followed falls by half. What is called Cmax is the highest concentration seen after dosing. One may read the Tmax as the time at which the peak concentration occurs. For the compound `Cc1cc(Oc2cncnc2)cc(C(=O)Nc2ccc(F)cn2)n1` [drawing 267], in [2] (Cynomolgus monkey IV/PO), the bioavailability is 42 to 45%, the clearance amounted to 15.4 mL/min/kg and the half-life was 6.04 h. For the same compound, the Vd in [2] (Cynomolgus monkey IV/PO, read-out: Vss) came to 2.5 L/kg. Also, in data set [2], the peak level (Cmax) was 858 nM and the Tmax is 3 h.

For the compound `Cc1cc(Oc2cncnc2)cc(C(=O)Nc2ccc(F)cn2)n1` [Compound (2), N-(5-fluoropyridin-2-yl)-6-methyl-4-(pyrimidin-5-yloxy)picolinamide], in data set [3] (3 mg/kg PO 15 min prior to testing, 0.5% MC, 30 min burying), the “inhibition of marble burying vs. vehicle” value is “inhibition of marble burying was observed”. Besides, the “inhibition of marble burying vs. vehicle” value in data set [3] (10 mg/kg PO 15 min prior to testing, 0.5% MC, 30 min burying) is on record as “inhibition of marble burying was observed”. In the data set on elevated plus maze (30 mg/kg), the “time spent in the open arms” value is recorded as “statistically significant increase in the time spent in the open arms” and the total distance traveled result is recorded as “statistically significant beneficial effect”.

As for `Cc1nc(C#Cc2ccc(-c3cc(F)cc(C#N)c3)nc2)cs1` [STX107, reference compound], the “inhibition of marble burying vs. vehicle” value in data set [3] (positive control, 10 mg/kg free base IP 60 min ptx) is reported as “inhibition of marble burying was observed”.

Usually solubility stands for the dissolved amount per volume that the medium holds. On to `Cc1cc(Oc2cncnc2)cc(C(=O)Nc2ccc(F)cn2)n1` [drawing 263, N-(5-fluoropyridin-2-yl)-6-methyl-4-(pyrimidin-5-yloxy)picolinamide], for which the “mGluR5 mode of action” value at mGluR5 is “NAM”. The same compound showed a solubility in data set [4] (FaSSIF, pH 6.5, fassif) of 47 µg/mL (≈ 144 µM). The amount in solution in data set [4] (setting [7]) (solubility) came to 205 µg/mL (≈ 630 µM). In the data set “Permeability/efflux”, the Permeability result is “Predicted high” and the efflux entry is “no efflux”. The “Human PPB, %” value in “Human PPB” turned out to be 91.4%.

As for `Cc1cccc(C#Cc2ccccc2)n1` [MPEP, 2-methyl-6-(phenylethynyl)pyridine], in [1], the “effect in marble burying model” value is “effective in this model”. In addition, in data set [5], the “effect on NMDA receptor activity” value is listed as “directly inhibit the N-methyl-D-aspartate (NMDA) receptor activity”. Moreover, the “activity at mGluR4” value on mGluR4 was “positive allosteric modulator of mGluR4”.

As for `Cc1cc(Oc2cncc(F)c2)cc(C(=O)Nc2ccc(F)cn2)n1` [Compound (1), N-(5-fluoropyridin-2-yl)-4-((5-fluoropyridin-3-yl)oxy)-6-methylpicolinamide], the total distance traveled result in the data set with elevated plus maze (10 mg/kg) and in the data set with elevated plus maze (30 mg/kg) was “statistically significant beneficial effect” in each case.

In [2] (Cynomolgus monkey IV/PO), `Cc1cc(Oc2cncc(F)c2)cc(C(=O)Nc2ccc(F)cn2)n1` [drawing 268] gave a bioavailability of 25 to 45%, a clearance of 13.2 mL/min/kg and a half-life of 9.38 h. For the same compound, in data set [2], the peak level (Cmax) was 1360 nM and the time of peak concentration (Tmax) amounted to 2 h.

In the case of `Cc1cc(Oc2cncc(F)c2)cc(C(=O)Nc2ccc(F)cn2)n1` [drawing 270], the “Mouse BHB (%)” value in the data set “Mouse BHB” is given as 98.5%. The “Brain Concentration (nM)” value in data set [6] (1 h) is recorded as “BLQ”. Further, in data set [6] (1 h), the “Plasma Concentration (nM)” value is “BLQ”. In addition, the values for the concentration at 0.25 h in [6] (setting [8]), in data set [6] (setting [9]) and in [6] (setting [12]) were 176 nM, 2.6 nM and 48.3 nM, respectively. The concentration at 0.5 h in [6] (setting [8]) was 143 nM; in data set [6] (setting [9]), 2.1 nM; in [6] (setting [12]), 30.7 nM. Moreover, the concentration at 3 h in data set [6] (setting [10]) is 19.6 nM; in data set [6] (setting [11]), 0.3 nM; in data set [6] (plasma, 3 h, read-out: Plasma Concentration), 3.2 nM.

On to `Cc1cc(Oc2cncc(F)c2)cc(C(=O)Nc2ccc(F)cn2)n1` [drawing 264, N-(5-fluoropyridin-2-yl)-4-((5-fluoropyridin-3-yl)oxy)-6-methylpicolinamide], for which the “mGluR5 mode of action” value on mGluR5 was “NAM”. In data set [4] (FaSSIF, pH 6.5, fassif), this compound gave a solubility of 7 µg/mL (≈ 20.4 µM). This compound also gave a solubility in data set [4] (setting [7]) of 70 µg/mL (≈ 204 µM). Moreover, in the data set “Permeability/efflux”, the Permeability entry is “Predicted high” and the efflux result is given as “no efflux”. Also, the “Human PPB, %” value in “Human PPB” is reported as 98.5%.

On to `Cc1cc(Oc2cncnc2)cc(C(=O)Nc2ccc(F)cn2)n1` [drawing 269], for which the “Mouse BHB (%)” value in the data set “Mouse BHB” is reported as 92.2%. For the same compound, the “Plasma Concentration (nM)” value in data set [6] (1 h) and in data set [6] (3 h) was “BLQ” in each case. Besides, the values for the concentration at 0.25 h in [6] (setting [8]), in [6] (setting [9]) and in data set [6] (setting [12]) were 195 nM, 15.2 nM and 33.2 nM, respectively. Further, the concentration at 0.5 h in [6] (setting [8]) came to 345 nM; in data set [6] (setting [9]), 26.9 nM; in data set [6] (setting [12]), 77.4 nM. Also, the concentration at 1 h was found to be 9.9 nM in [6] (brain, 1 h, read-out: Brain Concentration) and 0.8 nM in data set [6] (brain, 1 h, read-out: Free Brain Concentration). For the same compound, the concentration at 3 h in [6] (setting [10]) is 9.2 nM; in data set [6] (setting [11]), 0.7 nM.
